Experimental data as given in article PMC8325676, “The tea plant CsLHT1 and CsLHT6 transporters take up amino acids, as a nitrogen source, from the soil of organic tea plantations” (Horticulture Research, 2021).

Legend:
CsLHT1 = conditions: 10-500 µM 15N-Glu, 10 min, 30°C; labelled compound
[1] = substrate: N[C@@H](CCC(=O)O)C(=O)O; assay: cells, lysate or membranes; format: cell-based, Camellia sinensis; conditions: 0.5-20 mM 15N-Glu, 10 min, 30°C, labelled compound

Q: `N[C@@H](CCC(=O)O)C(=O)O` [15N-Glu] was tested. Which Km (CsLHT1) did it give?
A: 39.9 µM

B1: CsLHT6 (Camellia sinensis) (protein)
chain: MVSNSPPAPKEVPTEEDQWTEKGPPREAKWWYSTFHTVTAMVGAGVLSLPYAMAYLGWGPGTMLLVFSWCITLNTMWQMIQLHECVPGVRFDHYYDLGRHAFGPKLGPWIVLPQQLIVQVGCDIVYMVTGGKCLKKFMEIVCTNCTRIKQSYWICIFGSTHFFLSQLPNFNSVSGVSLAAAIMSLSYSTIAWVGCLSKGRVENVSYAYKKTSGADSMFRVFNALGEITFAYAGHAVVLEIQATVPSTPEMPSKVPMWKGAVWAYFINAICYFPVALIGYWAFGQDVADNVLVALERPSWLIAAANLMVVIHVIGSYQVYAMPVFDLLEKAMVKRLSFPPGIGLRIIVRSAYVAFTLFVGVTFPFFGDLLGFFGGFGFAPTSYFLPSIIWLIIKKPKRFSISWFINWACIYIGVFVMLASTIGGLRNIVIDSSTYEFYS
notes: cloned from root cDNA
Q: B1 was tested. Which Km [1] did it give?
A: 2500 µM
